{
  "source": "paper PMC11876601",
  "about": "(Molecular Systems Biology, 2025)",
  "tested_on": "AsPC-1 cells",
  "experiment": "Cell proliferation assay, chemodrug + ATR inhibitor (Incucyte confluence, 72 h);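 note: underlying read-out for every value is AsPC-1 confluence after 72 h incubation at 37 °C and 5% CO2, divided by that well's starting confluence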",
  "details": "for Curve bottom / Curve slope / Curve top: fitted dose-response curve; for Curve bottom / Curve top: relative response; for Raw data (confluence at 72 h/confluence at 0 h): Berzosertib experiment; for EC50: Homo sapiens",
  "key": {"[1]": {"details": "AsPC1, Experiment GEM+ATRi_dose1"}, "[2]": {"details": "AsPC1, Experiment GEM+ATRi_dose2"}, "[3]": {"details": "AsPC1, Experiment GEM+ATRi_dose3"}},
  "note": "Where “and” joins values, the source holds several entries; their conditions need not be identical. Equal values may be shown once. Read-outs that look alike come from different tables or passages of the source.",
  "experimental": "Cells were seeded at 5000 cells/well into 96-well flat bottom plates (Eppendorf) and allowed to attach overnight. […] Cells were incubated for 72 h at 37 °C and 5% CO2. Cell confluence readouts at 72 h were either normalized to their initial confluence using the Incucyte software (AsPC-1) or used without prior normalization (all others). […] Each experiment was performed in triplicates, the data was plotted as mean ± standard deviation (s.d.).",
  "data": [
    {"smiles": "CNCc1ccc(-c2cc(-c3nc(-c4ccc(S(=O)(=O)C(C)C)cc4)cnc3N)on2)cc1", "note": "[Berzosertib]", "values": [
      {"measurement": "Curve bottom", "setting": "AsPC1, Experiment ATRi (ATR inhibitor alone)", "value": "1.08 and 1.02 and 1.03"},
      {"measurement": "Curve slope", "setting": "[1]", "value": "1.49 and 1.39 and 2.10"},
      {"measurement": "Curve bottom", "setting": "[1]", "value": "1.02 and 0.99 and 0.96"},
      {"measurement": "Curve top", "setting": "[1]", "value": "0.52 and 0.41 and 0.43"},
      {"measurement": "Curve bottom", "setting": "[2]", "value": "1.02 and 0.89 and 0.87"},
      {"measurement": "Curve top", "setting": "[2]", "value": "0.47 and 0.41"},
      {"measurement": "Curve slope", "setting": "[3]", "value": "1.48 and 2.60 and 1.95"},
      {"measurement": "Curve bottom", "setting": "[3]", "value": "1.02 and 0.71 and 0.76"},
      {"measurement": "Curve top", "setting": "[3]", "value": "0.44 and 0.38 and 0.37"},
      {"measurement": "Response", "setting": "AsPC1, GEM 100 nM + ATRi 30 nM", "value": 1.96},
      {"measurement": "Response", "setting": "AsPC1, GEM 300 nM + ATRi 30 nM", "value": 1.76},
      {"measurement": "Response", "setting": "AsPC1, GEM 1000 nM + ATRi 30 nM", "value": 1.64},
      {"measurement": "Response", "setting": "AsPC1, GEM 3000 nM + ATRi 30 nM", "value": 1.69},
      {"measurement": "Raw data (confluence at 72 h/confluence at 0 h)", "setting": "replicate R2, titrated drug dose 100 nM", "value": 1.63},
      {"measurement": "Raw data (confluence at 72 h/confluence at 0 h)", "setting": "replicate R2, titrated drug dose 300 nM", "value": 3.32},
      {"measurement": "Raw data (confluence at 72 h/confluence at 0 h)", "setting": "replicate R2, titrated drug dose 1000 nM", "value": 1.81},
      {"measurement": "Raw data (confluence at 72 h/confluence at 0 h)", "setting": "replicate R2, titrated drug dose 3000 nM", "value": 0.95},
      {"measurement": "Raw data (confluence at 72 h/confluence at 0 h)", "setting": "replicate R2, titrated drug dose 10000 nM", "value": 1.02},
      {"measurement": "Raw data (confluence at 72 h/confluence at 0 h)", "setting": "replicate R3, titrated drug dose 3 nM", "value": 3.53},
      {"measurement": "Raw data (confluence at 72 h/confluence at 0 h)", "setting": "replicate R3, titrated drug dose 10 nM", "value": 3.58},
      {"measurement": "Raw data (confluence at 72 h/confluence at 0 h)", "setting": "replicate R3, titrated drug dose 30 nM", "value": 3.44},
      {"measurement": "Raw data (confluence at 72 h/confluence at 0 h)", "setting": "replicate R3, titrated drug dose 100 nM", "value": 1.82},
      {"measurement": "Raw data (confluence at 72 h/confluence at 0 h)", "setting": "replicate R3, titrated drug dose 300 nM", "value": 3.31},
      {"measurement": "Raw data (confluence at 72 h/confluence at 0 h)", "setting": "replicate R3, titrated drug dose 1000 nM", "value": 1.82},
      {"measurement": "Raw data (confluence at 72 h/confluence at 0 h)", "setting": "replicate R3, titrated drug dose 3000 nM", "value": 0.98},
      {"measurement": "Raw data (confluence at 72 h/confluence at 0 h)", "setting": "replicate R3, titrated drug dose 10000 nM", "value": 1.08},
      {"measurement": "Raw data (confluence at 72 h/confluence at 0 h)", "setting": "replicate R1, titrated drug dose 3 nM", "value": 3.58},
      {"measurement": "Raw data (confluence at 72 h/confluence at 0 h)", "setting": "replicate R1, titrated drug dose 10 nM", "value": 3.42},
      {"measurement": "Raw data (confluence at 72 h/confluence at 0 h)", "setting": "replicate R1, titrated drug dose 30 nM", "value": 3.67},
      {"measurement": "Raw data (confluence at 72 h/confluence at 0 h)", "setting": "replicate R1, titrated drug dose 100 nM", "value": 3.44},
      {"measurement": "Raw data (confluence at 72 h/confluence at 0 h)", "setting": "replicate R1, titrated drug dose 300 nM", "value": 3.48},
      {"measurement": "Raw data (confluence at 72 h/confluence at 0 h)", "setting": "replicate R1, titrated drug dose 1000 nM", "value": 1.39},
      {"measurement": "Raw data (confluence at 72 h/confluence at 0 h)", "setting": "replicate R1, titrated drug dose 3000 nM", "value": 1.11},
      {"measurement": "Raw data (confluence at 72 h/confluence at 0 h)", "setting": "replicate R1, titrated drug dose 10000 nM", "value": 1.24},
      {"measurement": "Raw data (confluence at 72 h/confluence at 0 h)", "setting": "replicate R2, titrated drug dose 3 nM", "value": 3.47},
      {"measurement": "Raw data (confluence at 72 h/confluence at 0 h)", "setting": "replicate R2, titrated drug dose 10 nM", "value": 3.62},
      {"measurement": "Raw data (confluence at 72 h/confluence at 0 h)", "setting": "replicate R2, titrated drug dose 30 nM", "value": 3.68},
      {"measurement": "Response", "setting": "GEM 0 nM, ATRi 30 nM", "value": "3.26 and 3.50 and 3.35"},
      {"measurement": "Response", "setting": "GEM 0 nM, ATRi 300 nM", "value": "3.38 and 2.28 and 2.67"},
      {"measurement": "Response", "setting": "GEM 1 nM + ATRi 30 nM", "value": "3.40 and 3.47 and 3.32"},
      {"measurement": "Response", "setting": "GEM 1 nM + ATRi 100 nM", "value": "3.25 and 2.45 and 2.30"},
      {"measurement": "Response", "setting": "GEM 1 nM + ATRi 300 nM", "value": "3.17 and 2.72 and 2.68"},
      {"measurement": "Response", "setting": "GEM 3 nM + ATRi 30 nM", "value": "3.21 and 3.37 and 3.20"},
      {"measurement": "Response", "setting": "GEM 3 nM + ATRi 100 nM", "value": "3.16 and 3.42 and 3.23"},
      {"measurement": "Response", "setting": "GEM 3 nM + ATRi 300 nM", "value": "3.33 and 2.50 and 2.49"},
      {"measurement": "Response", "setting": "GEM 10 nM + ATRi 30 nM", "value": "3.02 and 3.24 and 3.22"},
      {"measurement": "Response", "setting": "GEM 10 nM + ATRi 100 nM", "value": "2.95 and 3.25 and 2.97"},
      {"measurement": "Response", "setting": "GEM 10 nM + ATRi 300 nM", "value": "2.69 and 2.35 and 2.32"},
      {"measurement": "Response", "setting": "GEM 30 nM + ATRi 30 nM", "value": "2.26 and 2.69 and 2.57"},
      {"measurement": "Response", "setting": "GEM 30 nM + ATRi 100 nM", "value": "2.27 and 2.08 and 1.96"},
      {"measurement": "Response", "setting": "GEM 30 nM + ATRi 300 nM", "value": "2.06 and 1.65 and 1.60"},
      {"measurement": "Response", "setting": "GEM 100 nM + ATRi 30 nM", "value": 1.68},
      {"measurement": "Response", "setting": "GEM 100 nM + ATRi 100 nM", "value": "1.81 and 1.49 and 1.48"},
      {"measurement": "Response", "setting": "GEM 100 nM + ATRi 300 nM", "value": "1.53 and 1.40 and 1.31"},
      {"measurement": "Response", "setting": "GEM 300 nM + ATRi 30 nM", "value": "1.65 and 1.49"},
      {"measurement": "Response", "setting": "GEM 300 nM + ATRi 100 nM", "value": "1.60 and 1.52 and 1.44"},
      {"measurement": "Response", "setting": "GEM 300 nM + ATRi 300 nM", "value": "1.48 and 1.38 and 1.24"},
      {"measurement": "Response", "setting": "GEM 1000 nM + ATRi 30 nM", "value": "1.43 and 1.48"},
      {"measurement": "Response", "setting": "GEM 1000 nM + ATRi 100 nM", "value": "1.53 and 1.41 and 1.39"},
      {"measurement": "Response", "setting": "GEM 1000 nM + ATRi 300 nM", "value": "1.41 and 1.36 and 1.30"},
      {"measurement": "Response", "setting": "GEM 3000 nM + ATRi 30 nM", "value": "1.40 and 1.48"},
      {"measurement": "Response", "setting": "GEM 3000 nM + ATRi 100 nM", "value": "1.58 and 1.38 and 1.33"},
      {"measurement": "Response", "setting": "GEM 3000 nM + ATRi 300 nM", "value": "1.46 and 1.27"},
      {"measurement": "EC50", "setting": "ASPC1, 72 h, AsPC1, Experiment ATRi (ATR inhibitor alone), single replicates R1-R3", "value": 647, "unit": "nM"},
      {"measurement": "EC50", "setting": "ASPC1, 72 h, read-out: EC50 (cell growth), ATR inhibitor as single agent", "value": 766, "unit": "nM"},
      {"measurement": "EC50", "setting": "ASPC1, 72 h, read-out: EC50 mean [nM], AsPC1, Experiment ATRi (ATR inhibitor alone), mean of replicates", "value": 719, "unit": "nM"},
      {"measurement": "EC50", "setting": "ASPC1, 72 h, read-out: pEC50, AsPC1 (converted), Experiment ATRi (ATR inhibitor alone), single replicates R1-R3", "value": 646, "unit": "nM"},
      {"measurement": "EC50", "setting": "ASPC1, read-out: EC50 mean [nM], AsPC1, Experiment ATRi (ATR inhibitor alone), mean of replicates", "value": 719, "unit": "nM"}
    ]}
  ]
}
